Results published in publication PMC5218480 (PLoS ONE, 2017).

Test system: MV-4-11 cells
Experiment: Gene expression microarray analysis (Affymetrix PrimeView) and GSEA
Assay type: cell-based, human
Set-up: RFU PODN (11730768_x_at) / Fold change /veh PODN (11730768_x_at) / RFU LINC00158 (11744669_a_at) / Fold change /veh LINC00158 (11744669_a_at) / RFU DUSP10 (11751237_a_at) / Fold change /veh DUSP10 (11751237_a_at) / RFU ID3 (11757404_x_at) / Fold change /veh ID3 (11757404_x_at) / RFU PLEKHG5 (11737974_s_at) / Fold change /veh PLEKHG5 (11737974_s_at) / RFU LRRC4B (11730491_at) / Fold change /veh LRRC4B (11730491_at) / RFU GIMAP4 (11747438_a_at) / Fold change /veh GIMAP4 (11747438_a_at) / RFU KRT8 (11758183_x_at) / Fold change /veh KRT8 (11758183_x_at) / RFU CNN1 (11734310_a_at) / Fold change /veh CNN1 (11734310_a_at) / RFU VPS37D (11726825_at) / Fold change /veh VPS37D (11726825_at) / RFU C10orf10 (11716522_x_at) / Fold change /veh C10orf10 (11716522_x_at) / RFU KIR2DL2 /// KIR2DL4 /// KIR2DL5A /// KIR2DL5B /// KIR2DS1 /// KIR2DS2 /// KIR2DS3 /// KIR2DS4 /// KIR3DL3 /// KIR3DL3 /// KIR3DS1 (11738374_at) / Fold change /veh KIR2DL2 /// KIR2DL4 /// KIR2DL5A /// KIR2DL5B /// KIR2DS1 /// KIR2DS2 /// KIR2DS3 /// KIR2DS4 /// KIR3DL3 /// KIR3DL3 /// KIR3DS1 (11738374_at) / RFU C1QL1 (11718748_at) / Fold change /veh C1QL1 (11718748_at) / RFU TMPRSS4 (11747572_a_at) / Fold change /veh TMPRSS4 (11747572_a_at) / RFU HAMP (11756126_x_at) / Fold change /veh HAMP (11756126_x_at) / RFU RNFT2 (11725882_a_at) / Fold change /veh RNFT2 (11725882_a_at) / RFU NR4A2 (11747474_a_at) / Fold change /veh NR4A2 (11747474_a_at) / RFU ABCC12 (11746883_a_at) / Fold change /veh ABCC12 (11746883_a_at) / RFU TMEM136 (11760407_x_at) / Fold change /veh TMEM136 (11760407_x_at) / RFU CLDN22 /// WWC2 (11732394_at) / Fold change /veh CLDN22 /// WWC2 (11732394_at) / RFU HLA-DPB1 (11760878_x_at) / Fold change /veh HLA-DPB1 (11760878_x_at) / RFU SPINT1 (11716480_a_at) / Fold change /veh SPINT1 (11716480_a_at) / RFU GAP43 (11754022_s_at) / Fold change /veh GAP43 (11754022_s_at) / RFU A4GNT (11735810_at) / Fold change /veh A4GNT (11735810_at) / RFU PRB3 (11715151_x_at) / Fold change /veh PRB3 (11715151_x_at) / RFU TUBB4B (11761932_at) / Fold change /veh TUBB4B (11761932_at) / RFU CAPN14 (11732068_a_at) / Fold change /veh CAPN14 (11732068_a_at) / RFU TMCC2 (11721928_a_at) / Fold change /veh TMCC2 (11721928_a_at) / RFU IRGQ (11745062_a_at) / Fold change /veh IRGQ (11745062_a_at) / RFU FAM174B (11720279_a_at) / Fold change /veh FAM174B (11720279_a_at) / RFU TMPRSS4 (11748680_a_at) / Fold change /veh TMPRSS4 (11748680_a_at) / RFU FAM212B (11763350_a_at) / Fold change /veh FAM212B (11763350_a_at) / RFU PLEKHG5 (11743358_a_at) / Fold change /veh PLEKHG5 (11743358_a_at) / RFU ZSCAN30 (11745921_a_at) / Fold change /veh ZSCAN30 (11745921_a_at) / RFU CMKLR1 (11741424_a_at) / Fold change /veh CMKLR1 (11741424_a_at) / RFU LOC101060620 /// MAPK8IP1 (11723275_at) / Fold change /veh LOC101060620 /// MAPK8IP1 (11723275_at) / RFU SPTSSB (11747773_x_at) / Fold change /veh SPTSSB (11747773_x_at) / RFU PRSS12 (11739890_at) / Fold change /veh PRSS12 (11739890_at) / RFU BIN1 (11741810_x_at) / Fold change /veh BIN1 (11741810_x_at) / RFU WNT11 (11732464_a_at) / Fold change /veh WNT11 (11732464_a_at) / RFU C10orf10 (11716521_a_at) / Fold change /veh C10orf10 (11716521_a_at) / RFU C5orf56 (11738089_at) / Fold change /veh C5orf56 (11738089_at) / RFU CYB561 (11721691_x_at) / Fold change /veh CYB561 (11721691_x_at) / RFU ANKRD19P (11752326_a_at) / Fold change /veh ANKRD19P (11752326_a_at) / RFU OR2T12 /// OR2T33 /// OR2T8 (11738714_s_at) / Fold change /veh OR2T12 /// OR2T33 /// OR2T8 (11738714_s_at) / RFU VCAN (11748164_a_at) / Fold change /veh VCAN (11748164_a_at) / RFU JSRP1 (11732532_at) / Fold change /veh JSRP1 (11732532_at) / RFU KRTAP10-11 (11738290_x_at) / Fold change /veh KRTAP10-11 (11738290_x_at) / RFU MYO3A (11730013_a_at) / Fold change /veh MYO3A (11730013_a_at) / RFU EBF3 (11725865_a_at) / Fold change /veh EBF3 (11725865_a_at) / RFU CAMK2N1 (11719241_x_at) / Fold change /veh CAMK2N1 (11719241_x_at) / RFU C5orf56 (11738088_a_at) / Fold change /veh C5orf56 (11738088_a_at) / RFU OLFML3 (11715873_a_at) / Fold change /veh OLFML3 (11715873_a_at) / RFU LOC100653217 /// NTM (11731650_a_at) / Fold change /veh LOC100653217 /// NTM (11731650_a_at) / RFU MAPK11 (11762145_a_at) / Fold change /veh MAPK11 (11762145_a_at) / RFU FIZ1 (11724087_x_at) / Fold change /veh FIZ1 (11724087_x_at) / RFU OASL (11726364_x_at) / Fold change /veh OASL (11726364_x_at) / RFU SOX15 (11748057_x_at) / Fold change /veh SOX15 (11748057_x_at) / RFU CD79A (11719716_a_at) / Fold change /veh CD79A (11719716_a_at) / RFU HIST1H1D (11736915_at) / Fold change /veh HIST1H1D (11736915_at) / RFU CASKIN2 (11723855_a_at) / Fold change /veh CASKIN2 (11723855_a_at) / RFU LOC730098 (11760151_x_at) / Fold change /veh LOC730098 (11760151_x_at) / RFU OR4N2 (11742367_at) / Fold change /veh OR4N2 (11742367_at) / RFU PRRT2 (11749266_a_at) / Fold change /veh PRRT2 (11749266_a_at) / RFU SNX32 (11753110_a_at) / Fold change /veh SNX32 (11753110_a_at) / RFU CDHR5 (11726645_a_at) / Fold change /veh CDHR5 (11726645_a_at) / RFU RCAN1 (11760418_a_at) / Fold change /veh RCAN1 (11760418_a_at) / RFU FAM167A (11723789_a_at) / Fold change /veh FAM167A (11723789_a_at) / RFU FAM26E (11764081_at) / Fold change /veh FAM26E (11764081_at) / RFU ISYNA1 (11749810_s_at) / Fold change /veh ISYNA1 (11749810_s_at) / RFU ACY1 (11761880_at) / Fold change /veh ACY1 (11761880_at) / RFU 11764098_at / Fold change /veh 11764098_at / RFU SAMD14 (11745864_x_at) / Fold change /veh SAMD14 (11745864_x_at) / RFU NPB (11741838_a_at) / Fold change /veh NPB (11741838_a_at) / RFU TMPRSS6 (11731388_a_at) / Fold change /veh TMPRSS6 (11731388_a_at) / RFU KRTAP10-2 (11738614_at) / Fold change /veh KRTAP10-2 (11738614_at) / RFU ARHGAP8 /// PRR5-ARHGAP8 (11727945_x_at) / Fold change /veh ARHGAP8 /// PRR5-ARHGAP8 (11727945_x_at) / RFU KRTAP5-7 /// NADSYN1 (11734609_at) / Fold change /veh KRTAP5-7 /// NADSYN1 (11734609_at) / RFU RASL12 (11751679_a_at) / Fold change /veh RASL12 (11751679_a_at) / RFU CDKN2B (11736163_a_at) / Fold change /veh CDKN2B (11736163_a_at) / RFU PRF1 (11729649_at) / Fold change /veh PRF1 (11729649_at) / RFU, ZNF638 /// ZNF638-IT1 / Fold change vs veh, ZNF638 /// ZNF638-IT1 / RFU, PANK3 / Fold change vs veh, PANK3 / RFU, SH3YL1 / Fold change vs veh, SH3YL1 / RFU, ZEB2 / Fold change vs veh, ZEB2 / RFU, NRIP1 / Fold change vs veh, NRIP1 / RFU, PTTG1IP / Fold change vs veh, PTTG1IP / RFU, CAPN2 / Fold change vs veh, CAPN2 / RFU, MED14 / Fold change vs veh, MED14 / RFU, SNORA58 / Fold change vs veh, SNORA58 / RFU, C1orf63 / Fold change vs veh, C1orf63 / RFU, LRRFIP1 / Fold change vs veh, LRRFIP1 / RFU, NDUFAF7 / Fold change vs veh, NDUFAF7 / RFU, SLC12A2 / Fold change vs veh, SLC12A2 / RFU, IBTK / Fold change vs veh, IBTK / RFU, ESF1 / Fold change vs veh, ESF1 / Fold change vs veh, TMEM50B / RFU, TAOK1 / Fold change vs veh, TAOK1 / RFU, ACBD3 / Fold change vs veh, ACBD3 / RFU, TMA16 / Fold change vs veh, TMA16 / RFU, RWDD3 / Fold change vs veh, RWDD3 / RFU, BCAT1 / Fold change vs veh, BCAT1 / RFU, EDEM3 / Fold change vs veh, EDEM3 / RFU, TMEM33 / Fold change vs veh, TMEM33 / RFU, WDR75 / Fold change vs veh, WDR75 / RFU, AHCTF1 / Fold change vs veh, AHCTF1 / RFU, TFRC / Fold change vs veh, TFRC / RFU, ZDHHC17 / Fold change vs veh, ZDHHC17 / RFU, NOM1 / Fold change vs veh, NOM1 / RFU, ARL8B / Fold change vs veh, ARL8B / RFU, ZBTB11 / Fold change vs veh, ZBTB11 / RFU, TAMM41 / Fold change vs veh, TAMM41 / RFU, KIAA1704 /// LOC100996395 / Fold change vs veh, KIAA1704 /// LOC100996395 / RFU, ING1 / Fold change vs veh, ING1 / RFU, TRMT61B / Fold change vs veh, TRMT61B / RFU, FUBP3 / Fold change vs veh, FUBP3 / RFU, TP53 / Fold change vs veh, TP53 / RFU, TNKS2 / Fold change vs veh, TNKS2 / RFU, ZFP14 / Fold change vs veh, ZFP14 / RFU, ACTR2 / Fold change vs veh, ACTR2 / RFU, PPP3R1 / Fold change vs veh, PPP3R1 / RFU, PIK3R1 / Fold change vs veh, PIK3R1 / RFU, HNRNPA1 / Fold change vs veh, HNRNPA1 / RFU, RNF170 / Fold change vs veh, RNF170 / RFU, ZNF28 / Fold change vs veh, ZNF28 / RFU, RNGTT / Fold change vs veh, RNGTT / RFU, OGT / Fold change vs veh, OGT / RFU, BRD1 / Fold change vs veh, BRD1 / RFU, MARS / Fold change vs veh, MARS / RFU, ZNF655 / Fold change vs veh, ZNF655 / RFU, FAHD1 / Fold change vs veh, FAHD1 / RFU, BDP1 / Fold change vs veh, BDP1 / RFU, LRRCC1 / Fold change vs veh, LRRCC1 / RFU, ARID1A / Fold change vs veh, ARID1A / RFU, ZNF146 / Fold change vs veh, ZNF146 / RFU, ZNF330 / Fold change vs veh, ZNF330 / RFU, GPN3 / Fold change vs veh, GPN3 / RFU, C9orf123 / Fold change vs veh, C9orf123 / RFU, N4BP2L2 / Fold change vs veh, N4BP2L2 / RFU, ARFIP1 / Fold change vs veh, ARFIP1 / RFU, FAM179B / Fold change vs veh, FAM179B / RFU, BCL10 / Fold change vs veh, BCL10 / RFU, UHRF1BP1L / Fold change vs veh, UHRF1BP1L / RFU, BET1 / Fold change vs veh, BET1 / RFU, CNOT2 / Fold change vs veh, CNOT2 / RFU, ZNF268 / Fold change vs veh, ZNF268 / Fold change vs veh, ZNF507 / RFU, DGCR2 / Fold change vs veh, DGCR2 / RFU, WDSUB1 / Fold change vs veh, WDSUB1 / Fold change vs veh, HSP90B1 /// MIR3652 / RFU, ADSS / Fold change vs veh, ADSS / RFU, GK / Fold change vs veh, GK / RFU, ZNF148 / Fold change vs veh, ZNF148 / RFU, TAF9 / Fold change vs veh, TAF9 / RFU, SLC1A5 / Fold change vs veh, SLC1A5 / RFU, SLMO2 / Fold change vs veh, SLMO2 / RFU, ABCC4 / Fold change vs veh, ABCC4 / RFU, LOC101060439 /// RAP1B / Fold change vs veh, LOC101060439 /// RAP1B / RFU, RFX7 / Fold change vs veh, RFX7 / RFU, GTPBP10 / Fold change vs veh, GTPBP10 / RFU, CNEP1R1 / Fold change vs veh, CNEP1R1 / RFU, BIVM-ERCC5 /// ERCC5 / Fold change vs veh, BIVM-ERCC5 /// ERCC5 / RFU, ILF3 / Fold change vs veh, ILF3 / RFU 11762660_at / Fold change /veh 11762660_at / RFU VCAN (11757783_s_at) / Fold change /veh VCAN (11757783_s_at) / RFU DDX43 (11728927_at) / Fold change /veh DDX43 (11728927_at) / RFU KRT8 (11758188_x_at) / Fold change /veh KRT8 (11758188_x_at) / RFU NKD1 (11759106_at) / Fold change /veh NKD1 (11759106_at) / RFU SRD5A1 (11742802_a_at) / Fold change /veh SRD5A1 (11742802_a_at) / RFU TPSAB1 /// TPSB2 (11721975_s_at) / Fold change /veh TPSAB1 /// TPSB2 (11721975_s_at) / RFU GSTM3 (11746129_a_at) / Fold change /veh GSTM3 (11746129_a_at) / RFU IL23R (11737362_x_at) / Fold change /veh IL23R (11737362_x_at) / RFU TMEM51 (11727254_a_at) / Fold change /veh TMEM51 (11727254_a_at) / RFU PIWIL2 (11732686_x_at) / Fold change /veh PIWIL2 (11732686_x_at) / RFU ORM1 (11744905_x_at) / Fold change /veh ORM1 (11744905_x_at) / RFU CCDC152 (11743942_at) / Fold change /veh CCDC152 (11743942_at) / RFU ECM1 (11717891_a_at) / Fold change /veh ECM1 (11717891_a_at) / RFU IL23R (11748794_a_at) / Fold change /veh IL23R (11748794_a_at) / RFU TNFAIP8L3 (11732012_x_at) / Fold change /veh TNFAIP8L3 (11732012_x_at) / RFU MBOAT4 (11741988_at) / Fold change /veh MBOAT4 (11741988_at) / RFU 11764193_at / Fold change /veh 11764193_at / RFU TMEM53 (11763286_at) / Fold change /veh TMEM53 (11763286_at) / RFU MAGEB2 (11727129_at) / Fold change /veh MAGEB2 (11727129_at) / RFU TMEM200A (11744735_a_at) / Fold change /veh TMEM200A (11744735_a_at) / RFU CCDC152 (11751479_a_at) / Fold change /veh CCDC152 (11751479_a_at) / RFU FAM211A (11726209_a_at) / Fold change /veh FAM211A (11726209_a_at) / RFU RGS16 (11746705_a_at) / Fold change /veh RGS16 (11746705_a_at) / RFU VCAN (11755009_s_at) / Fold change /veh VCAN (11755009_s_at) / RFU RHOB (11743442_s_at) / Fold change /veh RHOB (11743442_s_at) / RFU RGS16 (11720943_a_at) / Fold change /veh RGS16 (11720943_a_at) / RFU RGS16 (11720944_at) / Fold change /veh RGS16 (11720944_at) / RFU, VPS4B / Fold change vs veh, VPS4B / RFU, CREB1 / Fold change vs veh, CREB1 / RFU, DNAJC13 / Fold change vs veh, DNAJC13 / RFU, GNAQ / Fold change vs veh, GNAQ / RFU, CDK5R1 / Fold change vs veh, CDK5R1 / RFU, ZRANB3 / Fold change vs veh, ZRANB3 / RFU, CUL4A / Fold change vs veh, CUL4A / RFU, CCNY / Fold change vs veh, CCNY / RFU, UFL1 / Fold change vs veh, UFL1 / RFU, COG3 / Fold change vs veh, COG3 / RFU, DIAPH2 / Fold change vs veh, DIAPH2 / RFU, SKA2 / Fold change vs veh, SKA2 / RFU, AFF3 / Fold change vs veh, AFF3 / RFU, LMF1 / Fold change vs veh, LMF1 / RFU, IPO11 / Fold change vs veh, IPO11 / RFU, DFFB / Fold change vs veh, DFFB / RFU, FOXP1 / Fold change vs veh, FOXP1 / RFU, CARD8 / Fold change vs veh, CARD8 / RFU, STRN3 / Fold change vs veh, STRN3 / RFU, ADK / Fold change vs veh, ADK / RFU, RASSF2 / Fold change vs veh, RASSF2 / RFU, WIPF1 / Fold change vs veh, WIPF1 / RFU, LARP1B / Fold change vs veh, LARP1B / RFU, RASA1 / Fold change vs veh, RASA1 / RFU, RB1 / Fold change vs veh, RB1 / RFU, PPFIA1 / Fold change vs veh, PPFIA1 / RFU, MAT2A / Fold change vs veh, MAT2A / RFU, CCT5 / Fold change vs veh, CCT5 / RFU, WDR92 / Fold change vs veh, WDR92 / RFU, CUX1 / Fold change vs veh, CUX1 / RFU, TTC7A / Fold change vs veh, TTC7A / RFU, TMEM135 / Fold change vs veh, TMEM135 / RFU, DEPTOR / Fold change vs veh, DEPTOR / RFU, CPM / Fold change vs veh, CPM / RFU, DNAJB6 / Fold change vs veh, DNAJB6 / RFU, CACNA2D3 / Fold change vs veh, CACNA2D3 / RFU, DTX4 / Fold change vs veh, DTX4 / RFU, TFCP2 / Fold change vs veh, TFCP2 / RFU, GMCL1 /// GMCL1P1 / Fold change vs veh, GMCL1 /// GMCL1P1 / RFU, AEBP2 / Fold change vs veh, AEBP2 / RFU, SNHG1 /// SNORD22 /// SNORD25 /// SNORD26 /// SNORD27 /// SNORD28 /// SNORD29 /// SNORD31 / Fold change vs veh, SNHG1 /// SNORD22 /// SNORD25 /// SNORD26 /// SNORD27 /// SNORD28 /// SNORD29 /// SNORD31 / Fold change (Aza/veh), C12orf56 (ProbeSet 11735607_a_at) / Fold change (ACY-1035/veh), C12orf56 (ProbeSet 11735607_a_at) / Fold change (Aza/veh), FGFR1OP (ProbeSet 11751329_s_at) / Fold change (ACY-1035/veh), FGFR1OP (ProbeSet 11751329_s_at) / Fold change (Aza/veh), VPS36 (ProbeSet 11739960_a_at) / Fold change (ACY-1035/veh), VPS36 (ProbeSet 11739960_a_at) / RFU SYPL1 (11715823_x_at) / Fold change /veh SYPL1 (11715823_x_at) / RFU IGFBP7 (11715501_s_at) / Fold change /veh IGFBP7 (11715501_s_at) / RFU REEP3 (11722064_at) / Fold change /veh REEP3 (11722064_at) / RFU IGLL1 (11728026_x_at) / Fold change /veh IGLL1 (11728026_x_at): dose or concentration left out as unconfirmed
Details: ProbeSet 11717914_a_at; LIST B

SMILES: Nc1ncn([C@@H]2O[C@H](CO)[C@@H](O)[C@H]2O)c(=O)n1 [azacitidine]
- RFU, BIVM-ERCC5 /// ERCC5: 162.65 RFU
